# Source: patent US7375083B2, “Pharmaceutical compositions for prevention of overdose or abuse” (Shire LLC, priority 2003, dated 2008)
# Where a SMILES comes first, the peptide text is derived from it. The star is where a group is joined. X1 = COc1ccc2c3c1O[C@H]1C(O*)=CC[C@H]4[C@@H](C2)N(C)CC[C@]314
# Experiments:
# [1] = Oral pharmacokinetics in rats, plasma d-amphetamine by ELISA; settings: Oral, relative to amphetamine (first value where two are given)
# [2] = Oral bioavailability of hydrocodone conjugates in rats, LC/MS/MS
# [3] = Intranasal bioavailability of hydrocodone conjugates in rats, LC/MS/MS
# [4] = Intravenous bioavailability of hydrocodone conjugates in rats, LC/MS/MS
# [5] = in vivo; cited from earlier work
# [6] = oral, 1 mg/kg dose, hydrocodone plus hydromorphone
# [7] = oral, 1 mg/kg dose, relative to hydrocodone bitartrate
# [8] = intranasal, 1 mg/kg dose, hydrocodone plus hydromorphone
# [9] = intranasal, 1 mg/kg dose, relative to hydrocodone bitartrate
# [10] = intravenous, 1 mg/kg dose, hydrocodone plus hydromorphone
# [11] = intravenous, 1 mg/kg dose, relative to hydrocodone bitartrate
# [12] = male, Sprague-Dawley, rat, plasma, po, 1 mg/kg
# [13] = male, Sprague-Dawley, rat, plasma, po, 2 mg/kg
# [14] = male, Sprague-Dawley, rat, plasma, po, 5 mg/kg
# [15] = male, Sprague-Dawley, rat, plasma, po, 25 mg/kg
# [16] = male, Sprague-Dawley, rat, plasma, iv, 1 mg/kg
# [17] = male, Sprague-Dawley, rat, plasma, other: intranasal, 1 mg/kg
# [18] = intravenous, 1 mg/kg hydrocodone base content
smiles,measurement,setting,value
CC(Cc1ccccc1)NC(=O)C(N)CCC(=O)O (stereo not drawn) [E-Amp],Percent AUC,[1],73%
same,Percent Cmax,[1],95%
CC(Cc1ccccc1)NC(=O)[C@H](CCC(=O)O)NC(=O)[C@@H](N)CCC(=O)O (stereo partly drawn) [EE-Amp],Percent AUC,[1],26%
same,Percent Cmax,[1],74%
CC(Cc1ccccc1)NC(=O)[C@H](Cc1ccccc1)NC(=O)[C@H](CCC(=O)O)NC(=O)[C@@H](N)CCC(=O)O (stereo partly drawn) [EEF-Amp],Percent AUC,[1],42%
same,Percent Cmax,[1],73%
"COc1ccc2c3c1O[C@H]1C(OC(=O)[C@H](Cc4ccccc4)NC(=O)[C@H](Cc4ccccc4)NC(=O)[C@H](Cc4ccccc4)NC(=O)[C@H](CCC(=O)O)NC(=O)[C@@H](N)CCC(=O)O)=CC[C@H]4[C@@H](C2)N(C)CC[C@]314 [EEFFF[SEQ ID NO: 3]-HC, Glu-Glu-Phe-Phe-Phe[SEQ ID NO: 3]-Hydrocodone] (H-EEFFF-X1)",hydrocodone plus hydromorphone concentration,"[2]; oral, 1 mg/kg dose, 0.5 Hours",11.3 ng/mL
same,hydrocodone plus hydromorphone concentration,"[2]; oral, 1 mg/kg dose, 1.5 Hours",4.1 ng/mL
same,hydrocodone plus hydromorphone concentration,"[2]; oral, 1 mg/kg dose, 3 Hours",1.2 ng/mL
same,hydrocodone plus hydromorphone concentration,"[2]; oral, 1 mg/kg dose, 5 Hours",1.2 ng/mL
same,hydrocodone plus hydromorphone concentration,"[2]; oral, 1 mg/kg dose, 8 Hours",1.2 ng/mL
same,AUC (ng/ml h) 0-8 h,[2]; [6],0.0207 µg·h/mL
same,Cmax,[2]; [6],0.0113 µg/mL
same,Percent HC (AUC),[2]; [7],108%
same,Percent HC (Cmax),[2]; [7],119%
same,hydrocodone plus hydromorphone concentration,"[3]; intranasal, 1 mg/kg dose, 5 Minutes",34 ng/mL
same,hydrocodone plus hydromorphone concentration,"[3]; intranasal, 1 mg/kg dose, 15 Minutes",21 ng/mL
same,hydrocodone plus hydromorphone concentration,"[3]; intranasal, 1 mg/kg dose, 30 Minutes",24 ng/mL
same,hydrocodone plus hydromorphone concentration,"[3]; intranasal, 1 mg/kg dose, 60 Minutes",15 ng/mL
same,AUC (ng/ml h) 0-1 h,[3]; [8],0.021 µg·h/mL
same,Cmax,[3]; [8],0.034 µg/mL
same,Percent HC (AUC),[3]; [9],14%
same,Percent HC (Cmax),[3]; [9],13%
same,hydrocodone plus hydromorphone concentration,"[4]; intravenous, 1 mg/kg dose, 5 Minutes",135 ng/mL
same,hydrocodone plus hydromorphone concentration,"[4]; intravenous, 1 mg/kg dose, 15 Minutes",77 ng/mL
same,hydrocodone plus hydromorphone concentration,"[4]; intravenous, 1 mg/kg dose, 30 Minutes",140 ng/mL
same,hydrocodone plus hydromorphone concentration,"[4]; intravenous, 1 mg/kg dose, 60 Minutes",85 ng/mL
same,AUC (ng/ml h) 0-1 h,[4]; [10],0.107 µg·h/mL
same,Cmax,[4]; [10],0.135 µg/mL
same,Percent HC (AUC),[4]; [11],62%
same,Percent HC (Cmax),[4]; [11],75%
CC(Cc1ccccc1)NC(=O)[C@H](Cc1ccccc1)NC(=O)[C@@H](N)Cc1ccccc1 (stereo partly drawn) [FF-Amp],Percent AUC,[1],27%
same,Percent Cmax,[1],64%
CC(Cc1ccccc1)NC(=O)CNC(=O)CN (stereo not drawn) [GG-Amp],Percent AUC,[1],79%
same,Percent Cmax,[1],88%
CC(Cc1ccccc1)NC(=O)C(N)Cc1cnc[nH]1 (stereo not drawn) [H-Amp],Percent AUC,[1],16%
same,Percent Cmax,[1],21%
"COc1ccc2c3c1O[C@H]1C(=O)CC[C@H]4[C@@H](C2)N(C)CC[C@]314 [Hydrocodone, reference compound]",Therapeutic plasma concentration,[5],1 to 30 ng/mL
same,Toxic plasma concentration,[5],greater than 100 ng/mL
same,AUC,[2]; [12],0.0451 µg·h/mL
same,Cmax,[2]; [12],0.114 µg/mL
same,concentration at 0 h,[2]; [12],0 µg/mL
same,concentration at 0.1 h,[2]; [12],0.114 µg/mL
same,concentration at 0.5 h,[2]; [12],0.0143 µg/mL
same,concentration at 1 h,[2]; [12],0.007 µg/mL
same,concentration at 2 h,[2]; [12],0.0026 µg/mL
same,concentration at 4 h,[2]; [12],0.001 µg/mL
same,AUC,[2]; [13],0.0382 µg·h/mL
same,Cmax,[2]; [13],0.0603 µg/mL
same,concentration at 0 h,[2]; [13],0 µg/mL
same,concentration at 0.1 h,[2]; [13],0.0603 µg/mL
same,concentration at 0.5 h,[2]; [13],0.0156 µg/mL
same,concentration at 1 h,[2]; [13],0.0129 µg/mL
same,concentration at 2 h,[2]; [13],0.0034 µg/mL
same,concentration at 4 h,[2]; [13],0.0013 µg/mL
same,AUC,[2]; [14],0.234 µg·h/mL
same,Cmax,[2]; [14],0.629 µg/mL
same,concentration at 0 h,[2]; [14],0 µg/mL
same,concentration at 0.1 h,[2]; [14],0.629 µg/mL
same,concentration at 0.5 h,[2]; [14],0.0743 µg/mL
same,concentration at 1 h,[2]; [14],0.0808 µg/mL
same,concentration at 2 h,[2]; [14],0.0184 µg/mL
same,concentration at 4 h,[2]; [14],0.0049 µg/mL
same,AUC,[2]; [15],0.419 µg·h/mL
same,Cmax,[2]; [15],0.409 µg/mL
same,concentration at 0 h,[2]; [15],0 µg/mL
same,concentration at 0.1 h,[2]; [15],0.409 µg/mL
same,concentration at 0.5 h,[2]; [15],0.154 µg/mL
same,concentration at 1 h,[2]; [15],0.0862 µg/mL
same,concentration at 2 h,[2]; [15],0.0833 µg/mL
same,concentration at 4 h,[2]; [15],0.0578 µg/mL
same,AUC,[3]; [16],0.0747 µg·h/mL
same,Cmax,[3]; [16],0.543 µg/mL
same,concentration at 0 min,[3]; [17],0 µg/mL
same,concentration at 5 min,[3]; [17],0.441 µg/mL
same,concentration at 15 min,[3]; [17],0.543 µg/mL
same,concentration at 30 min,[3]; [17],0.227 µg/mL
same,concentration at 60 min,[3]; [17],0.096 µg/mL
same,"HC (hydrocodone) AUC, Percent relative to hydrocodone bitartrate",[4]; [18],100%
same,"HC (hydrocodone) Cmax, Percent relative to hydrocodone bitartrate",[4]; [18],100%
same,AUC,[4]; [16],0.0241 µg·h/mL
same,Cmax,[4]; [16],0.043 µg/mL
CC(Cc1ccccc1)NC(=O)CNC(=O)[C@@H](N)CCCCN (stereo partly drawn) [KG-Amp],Percent AUC,[1],69%
same,Percent Cmax,[1],71%
